Experimental data from patent US8445505B2 (IRM LLC, priority 2008, dated 2013).

These molecules were tested against IGF1R Ba/F3 (Homo sapiens, UniProt P08069) (assay: Ba/F3 Cell Viability Inhibition Assay (Tel-TK transformed Ba/F3 lines)). Settings: Tel-TK (IGF1R) transformed Ba/F3 cells, 48 hours incubation, cell viability (Britelite luminescence).
Assay type: cell-based, murine
Design: the printed alternative
Source text: Ba/F3 is a murine IL-3-dependent pro-B lymphoma cell line. Parental Ba/F3 cells are used to generate a panel of sublines whose proliferation and survival is rendered IL-3-independent by stable transduction with individual tyrosine kinases activated by fusion with the amino-terminal portion of TEL (amino acid 1-375) or BCR. In order to generate Ba/F3 cell lines transformed by Tel-Tyrosine Kinase (TK) fusions, parental Ba/F3 cells are infected with a retrovirus harboring each TEL-fusion kinase and subjected to puromycin selection and IL-3 withdrawal to obtain IL-3-independent, transformed Ba/F3 cells.
Each transformed Ba/F3 cells are cultured in RPMI-1640 media (Gibco Cat #11875093, Carlsbad, Calif.) supplemented with 10% FBS (Hyclone Cat #SV30014.03, Logan, Utah), 4.5 g/L glucose (Sigma #G5400, St.Louis, Mo.), 1.5 g/L sodium bicarbonate (Biowhittaker #17-613E, Walkersville, Md.) and Pen/Strep (Gibco #10378-016, Carlsbad, Calif.). Cells are splitted twice weekly.
The potency of test compounds against various Tel-TK transformed Ba/F3 lines is determined as follows. Exponentially growing BaF3 Tel-TK cells are diluted in fresh medium to 75,000 cells/mL and seeded into 384-well plates (3750 cells/well) at 50 μL/well using a gill liquid dispenser (BioTek, Winooski, Vt., USA). Duplicate plates are run for each cell line. Test and control compounds are serially diluted with DMSO and arrayed in a polypropylene 384-well plate. 50 nL of compound is transferred into the assay plates using a pin-transfer device, and the plates are incubated at 37° C. (5% CO2) for 48 hours. 25 μL Britelite (Perkin Elmer) is added and luminescence is quantified using Analyst GT (Molecular Devices). Custom curve-fitting software is used to produce a logistic fit of percent cell viability as a function of the logarithm of inhibitor concentration. The IC50 is interpolated as the concentration of compound needed to reduce cell viability to 50% of a DMSO control. Parental Ba/F3 cells that are maintained and cultured in presence of IL-3 (1 ng/ml in final) are diluted in fresh medium containing IL-3 (1 ng/ml in final) to 75,000 cells/mL following the same procedure as described above.

IGF1R Ba/F3, sequence (P08069 999-1274 limits assumed): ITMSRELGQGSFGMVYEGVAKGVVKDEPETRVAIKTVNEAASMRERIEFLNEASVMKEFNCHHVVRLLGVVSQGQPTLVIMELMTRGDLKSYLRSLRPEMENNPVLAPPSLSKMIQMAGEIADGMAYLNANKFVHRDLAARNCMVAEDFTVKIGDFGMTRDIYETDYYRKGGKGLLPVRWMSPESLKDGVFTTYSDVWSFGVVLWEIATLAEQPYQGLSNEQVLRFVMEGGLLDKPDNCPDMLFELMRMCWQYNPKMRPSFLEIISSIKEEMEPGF

Going from `Cc1cc(Nc2nc(Nc3cc(C)c([C@H]4CC[C@H](N5CC[C@H](O)C5)CC4)cc3F)ncc2Cl)n[nH]1` [Compound 55, (S)-1-((Trans)-4-(4-(5-chloro-4-(5-methyl-1H-pyrazol-3-ylamino)pyrimidin-2-ylamino)-5-fluoro-2-methylphenyl)cyclohexyl)pyrrolidin-3-ol] to `Cc1cc(Nc2nc(Nc3cc(C)c([C@H]4CC[C@H](O)CC4)cc3F)ncc2Cl)n[nH]1` [Compound 72, Trans-4-(4-(5-chloro-4-(5-methyl-1H-pyrazol-3-ylamino)pyrimidin-2-ylamino)-5-fluoro-2-methylphenyl)cyclohexanol], the IC50 rises from 32 nM to 99 nM (3.1-fold).

`CCN(CC)[C@H]1CC[C@@H](c2cc(F)c(Nc3ncc(Cl)c(Nc4cc(C)[nH]n4)n3)cc2C)CC1` [Compound 56, 5-chloro-N2-(4-((cis)-4-(diethylamino)cyclohexyl)-2-fluoro-5-methylphenyl)-N4-(5-methyl-1H-pyrazol-3-yl)pyrimidine-2,4-diamine] and `CCN(CC)[C@H]1CC[C@H](c2cc(F)c(Nc3ncc(Cl)c(Nc4cc(C)[nH]n4)n3)cc2C)CC1` [Compound 57, 5-chloro-N2-(4-((trans)-4-(diethylamino)cyclohexyl)-2-fluoro-5-methylphenyl)-N4-(5-methyl-1H-pyrazol-3-yl)pyrimidine-2,4-diamine] are within 1.5-fold of each other in IC50: 25 nM for the first, 31 nM for the second.

Compared with `Cc1cc(Nc2nc(Nc3cc(C)c([C@H]4CC[C@@H](N5CCNCC5)CC4)cc3F)ncc2Cl)n[nH]1` [Compound 58, 5-chloro-N2-(2-fluoro-5-methyl-4-((cis)-4-(piperazin-1-yl)cyclohexyl)phenyl)-N4-(5-methyl-1H-pyrazol-3-yl)pyrimidine-2,4-diamine], `Cc1cc(Nc2nc(Nc3cc(C)c([C@H]4CC[C@H](N5CCNCC5)CC4)cc3F)ncc2Cl)n[nH]1` [Compound 59, 5-chloro-N2-(2-fluoro-5-methyl-4-((trans)-4-(piperazin-1-yl)cyclohexyl)phenyl)-N4-(5-methyl-1H-pyrazol-3-yl)pyrimidine-2,4-diamine] is 2.3-fold higher in IC50: 17 nM for the first, 39 nM for the second.

`Cc1cc(Nc2nc(Nc3cc(C)c([C@H]4CC[C@@H](N5CCCCC5)CC4)cc3C)ncc2C(F)(F)F)n[nH]1` [Compound 60, N2-(2,5-dimethyl-4-((cis)-4-(piperidin-1-yl)cyclohexyl)phenyl)-N4-(5-methyl-1H-pyrazol-3-yl)-5-(trifluoromethyl)pyrimidine-2,4-diamine] and `Cc1cc(Nc2nc(Nc3cc(C)c([C@H]4CC[C@H](N5CCCCC5)CC4)cc3C)ncc2C(F)(F)F)n[nH]1` [Compound 61, N2-(2,5-dimethyl-4-((trans)-4-(piperidin-1-yl)cyclohexyl)phenyl)-N4-(5-methyl-1H-pyrazol-3-yl)-5-(trifluoromethyl)pyrimidine-2,4-diamine] are within 1.5-fold of each other in IC50: 4 nM for the first, 3 nM for the second.

`Cc1cc(Nc2nc(Nc3cc(C)c([C@H]4CC[C@@H](N5CCCCC5)CC4)cc3F)ncc2C(F)(F)F)n[nH]1` [Compound 62, N^2-(2-fluoro-5-methyl-4-(cis-4-(piperidin-1-yl)cyclohexyl)phenyl)-N^4-(5-methyl-1H-pyrazol-3-yl)-5-(trifluoromethyl)pyrimidine-2,4-diamine] and `Cc1cc(Nc2nc(Nc3cc(C)c([C@H]4CC[C@H](N5CCCCC5)CC4)cc3F)ncc2C(F)(F)F)n[nH]1` [Compound 63, N^2-(2-fluoro-5-methyl-4-(trans-4-(piperidin-1-yl)cyclohexyl)phenyl)-N^4-(5-methyl-1H-pyrazol-3-yl)-5-(trifluoromethyl)pyrimidine-2,4-diamine] are within 1.5-fold of each other in IC50: 18 nM for the first, 16 nM for the second.

Compared with `Cc1cc(Nc2nc(Nc3cc(C)c([C@H]4CC[C@@H](N5CCOCC5)CC4)cc3F)ncc2C(F)(F)F)n[nH]1` [Compound 64, N2-(2-fluoro-5-methyl-4-((cis)-4-morpholinocyclohexyl)phenyl)-N4-(5-methyl-1H-pyrazol-3-yl)-5-(trifluoromethyl)pyrimidine-2,4-diamine], `Cc1cc(Nc2nc(Nc3cc(C)c([C@H]4CC[C@H](N5CCOCC5)CC4)cc3F)ncc2C(F)(F)F)n[nH]1` [Compound 65, N2-(2-fluoro-5-methyl-4-((trans)-4-morpholinocyclohexyl)phenyl)-N4-(5-methyl-1H-pyrazol-3-yl)-5-(trifluoromethyl)pyrimidine-2,4-diamine] is 1.6-fold lower in IC50: 50 nM for the first, 32 nM for the second.

First: Cc1cc(Nc2nc(Nc3cc(C)c([C@H]4CC[C@@H](N5CCOCC5)CC4)cc3C)ncc2C(F)(F)F)n[nH]1 [Compound 66, N^2-(2,5-dimethyl-4-(cis-4-morpholinocyclohexyl)phenyl)-N^4-(5-methyl-1H-pyrazol-3-yl)-5-(trifluoromethyl)pyrimidine-2,4-diamine]
Second: Cc1cc(Nc2nc(Nc3cc(C)c([C@H]4CC[C@H](N5CCOCC5)CC4)cc3C)ncc2C(F)(F)F)n[nH]1 [Compound 67, N^2-(2,5-dimethyl-4-(trans-4-morpholinocyclohexyl)phenyl)-N^4-(5-methyl-1H-pyrazol-3-yl)-5-(trifluoromethyl)pyrimidine-2,4-diamine]
The IC50 of the first is 1.6-fold higher: 14 nM for the first, 9 nM for the second. The second is the more potent here.

First: Cc1cc(Nc2nc(Nc3cc(C)c([C@H]4CC[C@@H](N5C[C@H](O)[C@@H](O)C5)CC4)cc3F)ncc2C(F)(F)F)n[nH]1 [Compound 68, (3S,4S)-1-((cis)-4-(5-fluoro-2-methyl-4-(4-(5-methyl-1H-pyrazol-3-ylamino)-5-(trifluoromethyl)pyrimidin-2-ylamino)phenyl)cyclohexyl)pyrrolidine-3,4-diol]
Second: Cc1cc(Nc2nc(Nc3cc(C)c([C@H]4CC[C@H](N5C[C@H](O)[C@@H](O)C5)CC4)cc3F)ncc2C(F)(F)F)n[nH]1 [Compound 69, (3S,4S)-1-((trans)-4-(5-fluoro-2-methyl-4-(4-(5-methyl-1H-pyrazol-3-ylamino)-5-(trifluoromethyl)pyrimidin-2-ylamino)phenyl)cyclohexyl)pyrrolidine-3,4-diol]
The IC50 of the first is 2.5-fold lower: 120 nM for the first, 302 nM for the second. The first is the more potent here.

First: Cc1cc(Nc2nc(Nc3cc(C)c([C@H]4CC[C@H](N5C[C@@H](O)[C@H](O)C5)CC4)cc3F)ncc2C(F)(F)F)n[nH]1 [Compound 70, (3R,4R)-1-((trans)-4-(5-fluoro-2-methyl-4-(4-(5-methyl-1H-pyrazol-3-ylamino)-5-(trifluoromethyl)pyrimidin-2-ylamino)phenyl)cyclohexyl)pyrrolidine-3,4-diol]
Second: Cc1cc(Nc2nc(Nc3cc(C)c([C@H]4CC[C@@H](N5C[C@@H](O)[C@H](O)C5)CC4)cc3F)ncc2C(F)(F)F)n[nH]1 [Compound 71, (3R,4R)-1-((cis)-4-(5-fluoro-2-methyl-4-(4-(5-methyl-1H-pyrazol-3-ylamino)-5-(trifluoromethyl)pyrimidin-2-ylamino)phenyl)cyclohexyl)pyrrolidine-3,4-diol]
The IC50 of the first is 2.3-fold higher: 248 nM for the first, 109 nM for the second. The second is the more potent here.

Compared with `Cc1cc(Nc2nc(Nc3cc(C)c([C@H]4CC[C@@H](O)CC4)cc3F)ncc2Cl)n[nH]1` [Compound 73, Cis-4-(4-(5-chloro-4-(5-methyl-1H-pyrazol-3-ylamino)pyrimidin-2-ylamino)-5-fluoro-2-methylphenyl)cyclohexanol], `Cc1cc(Nc2nc(Nc3cc(C)c(-c4ccc5c(c4)CCNC5)cc3C)ncc2Cl)n[nH]1` [Compound 74, 5-chloro-N2-(2,5-dimethyl-4-(1,2,3,4-tetrahydroisoquinolin-6-yl)phenyl)-N4-(5-methyl-1H-pyrazol-3-yl)pyrimidine-2,4-diamine] is 2.7-fold higher in IC50: 32 nM for the first, 87 nM for the second. The first is the more potent here.
